Entries after “also recorded” stand apart in the source; their conditions may differ. Where no end group is shown, it is not given here. allenamide 1a = not defined here
Columns and labels:
BSA = biological target: T1, BSA (Bos taurus, UniProt P02769); experiment: Labelling BSA with 6-8, SDS-PAGE analysis; format: biochemical, bovine; details: 10 nmol label, 1 nmol BSA, Tris-HCl pH 7.4, 37° C., 30 min
T1 construct: purchased
Method: 0.1 μmol/mL solution of BSA in H2O (10 μL, 1 nmol), 1.0 μmol/mL solution of 6, 7 and 8 in H2O (10 μL each, 10 nmol) and 80 μL of Tris-HCl buffer (pH 7.4) were mixed in 1 mL eppendorf tubes and incubated at 37° C. for 30 min.

[1] = system: peptides CGKSRF (3), KSCGRF (4) and YDSQCFHRW (5); experiment: Modification of peptides 3, 4 and 5 with allenamide 1a; format: biochemical
Method: 100 μL of the peptide solution (250 μM in ammonium carbonate buffer of pH 8.0) was mixed with an equal amount of the solution of 1a (2.5 mM in ammonium carbonate buffer containing 5% THF). After pipette mixing, reaction mixture was allowed to stand at room temperature for 10-20 minutes. […] Site selectivity was established by LC-MS/MS.
(§1) The irreversibility of the conjugation product was tested with peptide 5 and GSH (2). No reversion to starting material 5 was observed when the conjugation product of 5 and 1a was incubated with excess (100 equivalent) glutathione for overnight at 37° C. […] The irreversibility of specific cysteine labelling may thus enable the possibility for the protein modification in intracellular environment.

[2] = Reaction of 1a with lysine, serine and methionine under similar conditions; details: similar conditions as for cysteine methyl ester
[3] = biological target: T2, BSA (Bovine Serum Albumin) (Bos taurus, UniProt P02769); experiment: Modification (alkylation) of BSA with compound 1a, trypsin digestion and LC-MS/MS; format: biochemical; details: DTT-reduced BSA, 30 min at 37° C., pH 8.0
T2 construct: purchased
Method: 6.6 mg of BSA (0.1 μmol) was dissolved in 1 ml of ammonium carbonate buffer (pH 8.0). To this was added 2.3 mg solid DTT (15 μmol) and after pipette mixing resulting mixture was incubated over night at 37° C. 3.7 mg of 1a (21 μmol) dissolved in 1 ml of ammonium carbonate buffer (5% THF) was then added to it and incubated again for 30 min at 37° C. After due time, protein was purified through nano-separation filtration. The purified protein was subjected to trypsin digestion and LC-MS/MS using standard protocols (FIG. 13).

[4] = biological target: T3, bovine insulin (reduced chain A and chain B) (Bos taurus, UniProt P01317); experiment: Modification of DTT-reduced bovine insulin using 1a; format: biochemical
T3 construct: purchased
Method: After promising results in simple peptides, similar modification of cysteine residue in more complicated peptide sequences was also examined. A more complex pair of peptides generated from the DTT treatment of bovine insulin was tested (FIG. 10).
10 equivalents of solid DTT was added to 2 ml of a 10 mM solution of bovine insulin in 50 mM ammonium carbonate buffer of pH 8. The mixture after pipette mixing was allowed to stand at 70° C. under nitrogen atmosphere for 10 minutes. LCMS was done after due time and cooling to room temperature to confirm complete reduction of disulfide bonds. […] Similarly the m/Z values corresponding to chain A were obtained as 779, 1169 and 2338 corresponding to +3, +2 and +1 charge on chain A (molecular weight 2337.97). To 1 ml of the reduced insulin mixture was added 25 equivalents of 1a dissolved in 500 μL of THF and reaction mixture was allowed to stand at room temperature for 30 min. after pipette mixing. […] Thus, the expected molecular weight of modified chain B was 3743.67 (3397.67+346) and that of chain A was 3029.97 (2337.97+692) and the observed m/z values for modified chain B were at 750, 937, 1249 and 1873 corresponding to +5, +4, +3 and +2 charge and for chain A were at 1011 and 1515 corresponding to +3 and +2 charge on the chain. The site selectivity was further confirmed by MS/MS (FIGS. 11 and 12, respectively).

glutathione (GSH; 2) = experiment: Modification of glutathione (2) using allenamide 1a; format: biochemical
Method: 6.5 mg glutathione (0.021 mmol) was dissolved in 0.5 mL ammonium carbonate buffer (pH 8.0) in a 4 mL glass vial. To this solution was added 7.3 mg of allenamide 1a (0.042 mmol; 2 eq.) in 0.5 mL THF and resulting solution was mixed well using a pipette. […] This mixture was centrifuged at 8000 rpm for 5 min. Liquid was carefully decanted and the solid precipitated was washed two times with THF. The precipitate after final washing was dried in vacuum to give 9.9 mg (97% yield) of white solid (modified glutathione).

[5] = Reaction of allenamide 1a with cysteine methyl ester (free thiol and amino groups)
Method: […] Reaction mixture was stirred for 30 minutes after which TLC confirmed the complete consumption of 1a. THF was evaporated on rotary evaporator and product was extracted two times in dichloromethane (2.5 mL each). Solvent was evaporated and product was purified by column chromatography (5% MeOH in dichloromethane) to get 32.8 mg (76% yield) of white solid (modified cysteine).

peptide 5 (YDSQCFHRW) = experiment: Modification of cysteine in peptide 5 using allenamides 1b-d; format: biochemical; details: peptide sequence YDSQCFHRW; as determined by LCMS
Method: After pipette mixing, reaction mixture was allowed to stand at room temperature for 10-20 minutes. […] Site selectivity was established by LC-MS/MS.

TEM1 β-Lactamase (Bla) = TEM1 β-Lactamase (Bla) (Escherichia coli, UniProt P62593); experiment: Labelling TEM1 β-lactamase with 7, SDS-PAGE analysis; format: biochemical, bacterial; details: Tris-HCl pH 7.4, 37° C., 30 min
Method: For TEM1 β-Lactamase, 0.1 μmol/mL solution of β-Lactamase in H2O (10 μL, 1 nmol), 1.0 μmol/mL solution of 7 in H2O (10 μL, 10 nmol) and 80 μL of Tris-HCl buffer (pH 7.4) were mixed in a 1 mL eppendorf tube and incubated at 37° C. for 30 min. After due time, reaction mixture was subjected to SDS-PAGE analysis which confirmed no labelling. In second part of this experiment, 0.1 μmol/mL solution of β-Lactamase (1 mL) was heated with 1.0 μmol/mL solution of DTT (1 mL) at 80° C. for 10 min. After cooling down to room temperature, a 10 μL aliquot of this mixture was mixed with 10 μL of 7 (2.0 μmol/mL in H2O) and 80 μL of Tris-HCl buffer (pH 7.4) and incubated at 37° C. for 30 min.

[6] = Irreversibility of the conjugation products against excess thiol (LCMS); format: physicochemical; details: excess (100 equivalent) glutathione, overnight at 37° C.
Method: as §1

T3 sequence (P01317 25-54 limits assumed): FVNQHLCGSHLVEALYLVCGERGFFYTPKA
T3 sequence (P01317 85-105 limits assumed): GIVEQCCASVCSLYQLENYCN
Sequence of TEM1 β-Lactamase (Bla) (P62593 24-286 limits assumed): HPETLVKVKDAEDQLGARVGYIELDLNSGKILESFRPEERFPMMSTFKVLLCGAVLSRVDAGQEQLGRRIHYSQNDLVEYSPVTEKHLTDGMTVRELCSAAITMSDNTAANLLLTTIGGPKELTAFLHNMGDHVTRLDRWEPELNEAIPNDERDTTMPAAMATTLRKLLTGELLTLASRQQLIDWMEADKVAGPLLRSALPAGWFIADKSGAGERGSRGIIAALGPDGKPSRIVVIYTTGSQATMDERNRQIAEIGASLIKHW
T1 sequence (P02769 25-607): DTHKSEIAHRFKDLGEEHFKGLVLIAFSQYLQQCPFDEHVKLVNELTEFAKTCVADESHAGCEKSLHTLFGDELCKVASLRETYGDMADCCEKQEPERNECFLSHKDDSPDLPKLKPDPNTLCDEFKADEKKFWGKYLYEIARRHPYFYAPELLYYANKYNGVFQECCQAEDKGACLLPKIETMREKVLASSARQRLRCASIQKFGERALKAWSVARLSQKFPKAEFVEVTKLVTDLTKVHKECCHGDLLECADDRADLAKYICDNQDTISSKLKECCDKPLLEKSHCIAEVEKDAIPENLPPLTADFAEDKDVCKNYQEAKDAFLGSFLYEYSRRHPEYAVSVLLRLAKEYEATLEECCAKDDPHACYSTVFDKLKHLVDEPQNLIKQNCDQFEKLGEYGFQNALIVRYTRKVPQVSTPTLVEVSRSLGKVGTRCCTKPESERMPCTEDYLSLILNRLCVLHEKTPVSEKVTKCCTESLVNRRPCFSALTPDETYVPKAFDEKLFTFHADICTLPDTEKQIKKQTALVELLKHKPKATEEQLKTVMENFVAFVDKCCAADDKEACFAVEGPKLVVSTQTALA
T2 sequence (P02769 25-607): as above

With `C=C=CC(=O)NCCNC(=S)Nc1ccc2c(c1)C(=O)OC21c2ccc(O)cc2Oc2cc(O)ccc21` (single isomer, unassigned) [Compound 6] the “Labelling of BSA (SDS-PAGE)” value (BSA) was “labelling to have taken place successfully”.

For `C=C=CC(=O)NCc1ccccc1` [Allenamide 1a, N-benzylbuta-2,3-dienamide], the “Site of modification in peptides 3, 4 and 5 (LCMS and LC-MS/MS)” value [1] was “selectively at cysteine”, the “Conversion of peptides 3, 4 and 5 (LCMS)” value ([1]; 250 μM peptide, 2.5 mM 1a, pH 8.0, room temperature, 10-20 minutes) was “quantitative conversion” and the “Reaction of other amino acid residues (histidine, lysine, tyrosine and other reactive side chains) with 1a” value ([1]; even after standing overnight) was “did not give any reaction”. For the same compound, the “Product formation with lysine, serine and methionine” value [2] was “no product was obtained”, the “Modification of cysteine residues of BSA (LC-MS/MS of tryptic peptides)” value [3] was “All cysteine residues in the detected peptides were found to be modified” and the “Modification of reduced insulin chains (LCMS)” value ([4]; 25 equivalents of 1a, room temperature, 30 min) was “expected modification”. The “Molecules of allenamide included in chain A” value ([4]; chain A, from molecular weight increment 692) was “four molecules”, the “Molecules of allenamide included in chain B” value ([4]; chain B, from molecular weight increment 346) was “two molecules” and the “Conversion of glutathione (LCMS)” value (glutathione (GSH; 2); 2 eq. 1a, ammonium carbonate buffer pH 8.0/THF, after 15 min) was “complete conversion”. For the same compound, the “Site of modification in glutathione (NMR, LC-MS/MS)” value (glutathione (GSH; 2); cysteine thiol versus amino groups) was “modification at the cysteine residue”, the “Reaction at the free amino group of cysteine methyl ester” value ([5]; even when 1a was used in excess) was “No reaction” and the “Group of cysteine methyl ester involved in the reaction” value ([5]; gives product 1aa) was “Only the free thiol group”.

In the case of `C=C=CC(=O)NCC(=O)OCC` [Allenamide 1b, ethyl 2-(buta-2,3-dienamido)acetate], the Conversion (peptide 5 (YDSQCFHRW)) is reported as “Quantitative”.

For `C=C=CC(=O)NC1CCCCC1` [Allenamide 1c, N-cyclohexylbuta-2,3-dienamide], the Conversion (peptide 5 (YDSQCFHRW)) was “Quantitative”.

With `C=C=CC(=O)Nc1cccc2ccccc12` [Allenamide 1d, N-(naphthalene-1-yl)buta-2,3-dienamide] the Conversion (peptide 5 (YDSQCFHRW)) was “Quantitative”.

In the case of `C=C=CC(=O)NCCNC(=O)CCCCC[N+]1=C(/C=C/C=C2/N(C)c3ccccc3C2(C)C)C(C)(C)c2ccccc21.[Cl-]` [Compound 7], the “Labelling of β-Lactamase after DTT treatment (SDS-PAGE)” value (TEM1 β-Lactamase (Bla); DTT at 80° C. for 10 min before) is reported as “successful labelling; also recorded: successful labeling was observed”, the “Labelling of β-Lactamase without DTT treatment (SDS-PAGE)” value (TEM1 β-Lactamase (Bla); no free cysteine) is reported as “no labelling; also recorded: no labeling was observed” and the “Labelling of BSA (SDS-PAGE)” value (BSA) is reported as “labelling to have taken place successfully”.

With “conjugation product of 5 and 1a: peptide YDSQCFHRW (5) modified at cysteine with allenamide 1a (YDSQC(allenamide 1a)FHRW-OH; not fully specified; reading uncertain)” the “Reversion of conjugation product to starting material 5” value [6] was “No reversion”.
